Data reported in the NIST ThermoML archive (doi:10.1016/j.fluid.2007.06.008).
± gives the expanded uncertainty stated by the source.

How the values were obtained:
[1] = Liquid; for mass density: 101.33 kPa; for Normal boiling temperature: Ebulliometric method (Recirculating still)
[2] = refractive index (Na D-line) (dimensionless); conditions: 298.15 K; 101.33 kPa; Liquid; Standard Abbe refractometry

mass density ([1]; 298.15 K) [kg/m3] | Normal boiling temperature [1] [°C] | refractive index [2] | mass density ([1]; 303.15 K) [kg/m3] | Structure (SMILES)
785.04 ± 0.5 | 78.26 ± 0.1 | 1.3598 ± 0.0007 | – | CCO [ethanol]
659.62 ± 1.4 | 63.2 ± 0.1 | 1.3744 ± 0.0005 | – | CCC(C)CC [3-methylpentane]
764.92 ± 1.1 | 100.81 ± 0.1 | 1.4208 ± 0.0005 | – | CC1CCCCC1 [methylcyclohexane]
– | 82.18 ± 0.1 | 1.3851 ± 0.0005 | 775.4 ± 0.66 | CC(C)(C)O [2-methylpropan-2-ol]
